# Results as given in publication PMC12808126 (Scientific Reports, 2025).
# Columns and labels:
# Assay type in all cases: cell-based
# Conditions in all cases: to LPS control
# IL-1β = IL-1β suppression assay
# TNF-α = TNF-α suppression assay
# IL-6 = IL-6 suppression assay
smiles,measurement,setting,value
"NS(=O)(=O)c1ccc(-n2nc(C(=O)NN3C(=O)CCC3=O)cc2-c2ccccc2)cc1 [AS-11, N-(2,5-dioxopyrrolidin-1-yl)−5-phenyl-1-(4-sulfamoylphenyl)−1H-pyrazole-3-carboxamide]",IL-1β release percentage inhibition,IL-1β,75%
same,TNF-α release percentage inhibition,TNF-α,91%
same,IL-6 release percentage inhibition,IL-6,61%
